From US20130014428A1, “METHODS OF MONITORING AND CONTROLLING THE WALNUT TWIG BEETLE, PITYOPHTHORUS JUGLANDIS” (The United States of America as Represented by the …, priority 2011, published 2013)

Assays:
[1] = tested on: walnut twig beetle (WTB), Pityophthorus juglandis; experiment: Example 1 Field Test 1: flight response to X and related isomers, yellow sticky card traps; assay type: in vivo
Experimental: Field Bioassays of Semiochemicals. […] Contech Enterprises Inc., Delta, British Columbia, Canada) and attached to yellow sticky card traps ([…], OK). In addition, synthesized (+) and (-) enantiomers of trans-conophthorin were tested in 400 μl polyethylene Eppendorf microcentrifuge tubes. Four field studies were conducted (Table 2) that tested the flight responses to: 3-methyl-2-buten-l-ol and related isomers (Field Test 1); 3-methyl-2-buten-l-ol with and without racemic trans-conophthorin (Field Test 2); 3-methyl-2-buten-l-ol with and without the purified enantiomers of trans-conophthorin (Field Test 3); and 3-methyl-2-buten-l-ol with and without racemic chalcogran (Field Test 4). [table] Statistical Analysis. Field Tests 1-4 were each analyzed for treatment effect by using Friedman's non-parametric analysis of variance. (See Zar, J. H. 2010. Biostatistical Analysis, 5th Ed. Pearson Prentice Hall, New Jersey). Males and females were subjected to separate analyses. All treatments within experiments yielding a significant treatment effect were compared by using an a posteriori Nemenyi test (Zar 2010) with experimentwise α=0.05. Sex ratios of responding WTB were determined using Cochran's method for unbiased sampling (See Cochran, W. G. 1977. Sampling Techniques, 3rd ed. John Wiley, New York), with 95% confidence intervals calculated by using the Clopper-Pearson method. (See Zar, J. H. 2010. Biostatistical Analysis, 5th Ed. Pearson Prentice Hall, New Jersey).

WTB [2] = experiment: Six release rate experiment, 4-unit Lindgren funnel traps; assay type: in vivo, Pityophthorus juglandis; details: for trap catches, female WTB / trap catches, male WTB: N=99
Experimental: In a separate experiment, the flight response of WTB to six release rates of 3-methyl-2-buten-1-ol was tested at the same location in early summer. The six release rates were: 1) 165 mg/d, from a capped 15 ml polyethylene bottle with a 0.48 cm hole drilled in the side of the cap, charged with 15 ml 3-methyl-2-buten-1-ol (Sigma-Aldrich); 2) 15-80 mg/d from the commercial LDPE plastic pouch (Contech); 3) 5 mg/d from a capped 15 ml polyethylene bottle charged with 15 ml 3-methyl-2-buten-1-ol (Sigma-Aldrich); 4) 5 mg/d from a capped 15 ml polyethylene bottle charged with 1 ml 3-methyl-2-buten-1-ol (Sigma-Aldrich); 5) 0.2 mg/d from a 400 μl closed Eppendorf polyethylene microcentrifuge tube charged with 300 μl 3-methyl-2-buten-1-ol (Sigma-Aldrich); and 6) an unbaited control. The 15 ml polyethylene bottles were purchased from Contech Enterprises (product #100000582/583); the 400 μl polyethylene Eppendorf microcentrifuge tubes were purchased from Evergreen Scientific (product #214-3417-020, Los Angeles, Calif.). These release devices were attached to 4-unit Lindgren funnel traps as described above. The six treatments were replicated in three spatial blocks and the treatments were re-randomized among the six trap stations in a block each time the traps were emptied (nearly every day). Statistical Analyses. Analysis of treatment effects for the pouch vs. bottle experiment was done by using a sign test. (See Zar, J. H. 2010. Biostatistical Analysis. 5th ed. Pearson Prentice Hall, Englewood Cliffs, N.J.) The other four experiments were analyzed for treatment effect by using Friedman's non-parametric analysis of variance. Id. In all experiments, males and females were analyzed separately. All treatments within experiments yielding a significant treatment effect were compared by using an a posteriori Nemenyi test with experimentwise α=0.05. Id. For all experiments, differences among proportions of female WTB responding to treatments were analyzed by comparing 95% confidence intervals determined with the Clopper-Pearson method. Id.

WTB [3] = experiment: Example 2 Field Test 2: X in combination with DMNT, vittatol, rose oxides; assay type: in vivo, Pityophthorus juglandis; design: trap catches, male WTB / trap catches, female WTB: dose or concentration left out as unconfirmed; details: 4-unit Lindgren funnel traps
Experimental: At the same time and location, the flight response of WTB to 3-methyl-2-buten-1-ol ([…], Contech) was tested in combination with each of the following compounds: DMNT [4,8-dimethyl-1,3(E),7-nonatriene], vittatol [(3R,6R)-3-hydroxy-2,2,6-trimethyltetrahydropyran], (−)- and (+)-rose oxide [tetrahydro-4-methyl-2-(2-methylpropenyl)-2H-pyran] (Table 3, Field Test 2). DMNT and vittatol were synthesized and provided by Prof. Wittko Francke, University of Hamburg, Institute of Organic Chemistry; whereas (−)-rose oxide (>99% chemical purity, product #83917-1 ML, Fluka, Milwaukee, Wis.) and (+)-rose oxide (>99% chemical purity, product #83915-1 ML, Fluka) were purchased. The compounds besides 3-methyl-2-buten-1-ol were released from closed 400 μl Eppendorf microcentrifuge tubes (Evergreen) with loads of approximately 50 μl (DMNT); 20 mg (vittatol, solid at room temperature); and approx. 200 μl each of (−)-and (+)-rose oxide. The six treatments were replicated in three spatial blocks and the treatments were re-randomized among the six trap stations in a block each time the traps were emptied (nearly every day).
Statistical Analyses. Analysis of treatment effects for the pouch vs. bottle experiment was done by using a sign test. (See Zar, J. H. 2010. Biostatistical Analysis. 5th ed. Pearson Prentice Hall, Englewood Cliffs, N.J.) The other four experiments were analyzed for treatment effect by using Friedman's non-parametric analysis of variance. Id. In all experiments, males and females were analyzed separately. All treatments within experiments yielding a significant treatment effect were compared by using an a posteriori Nemenyi test with experimentwise α=0.05. Id. For all experiments, differences among proportions of female WTB responding to treatments were analyzed by comparing 95% confidence intervals determined with the Clopper-Pearson method. Id.

[4] = about three months in summer, Davis CA, N=21

CC(C)=CCO [X, 3-methyl-2-buten-1-ol]
flight attraction [1]: attractive to males and females | proportion of females responding ([1]; Davis CA): 0.65 | trap catches, female WTB [1, 4]: 438 | trap catches, male WTB [1, 4]: 233 | proportion of females responding (WTB [2]; 0.2 mg/d): 0.66 | trap catches, female WTB (WTB [2]; 0.2 mg/d): 623 | trap catches, male WTB (WTB [2]; 0.2 mg/d): 323 | proportion of females responding (WTB [2]; 5 mg/d (1 ml load)): 0.71 | trap catches, female WTB (WTB [2]; 5 mg/d (1 ml load)): 1084 | trap catches, male WTB (WTB [2]; 5 mg/d (1 ml load)): 453 | proportion of females responding (WTB [2]; 5 mg/d (15 ml load)): 0.72 | trap catches, female WTB (WTB [2]; 5 mg/d (15 ml load)): 1534 | trap catches, male WTB (WTB [2]; 5 mg/d (15 ml load)): 608 | proportion of females responding (WTB [2]; 165 mg/d): 0.75 | trap catches, female WTB (WTB [2]; 165 mg/d (15 ml load)): 612 | trap catches, male WTB (WTB [2]; 165 mg/d (15 ml load)): 205 | proportion of females responding (WTB [2]; 15-80 mg/d): 0.77 | trap catches, female WTB (WTB [2]; 15-80 mg/d): 934 | trap catches, male WTB (WTB [2]; 15-80 mg/d): 285 | release rate giving highest flight response (WTB [2]; six release rates compared): highest response for both sexes was to the 5 mg/d release loaded with 15 ml of pheromone | proportion of females responding (WTB [3]): 0.70 | trap catches, female WTB (WTB [3]; N=42): 100 | trap catches, male WTB (WTB [3]; N=42): 43
